Results as given in ChEMBL document CHEMBL3885881, “DrugMatrix”.

Species on record: Rattus norvegicus
Assay: DrugMatrix - Regimen: Daily Repeat
Type: toxicity, organism-based, Sprague-Dawley
Design: regimen Daily Repeat, gender Male, age 6-8 weeks
Details: in vivo, po, route oral GAVAGE, vehicle 100 % WATER; for ABSOLUTE BASOPHIL / ABSOLUTE EOSINOPHIL / ABSOLUTE LYMPHOCYTE / ABSOLUTE MONOCYTE / ABSOLUTE SEGMENTED NEUTROPHIL / BASOPHIL / EOSINOPHIL / ERYTHROCYTE COUNT / HEMATOCRIT / HEMOGLOBIN / LEUKOCYTE COUNT / LYMPHOCYTE / MEAN CORPUSCULAR HEMOGLOBIN / MEAN CORPUSCULAR HEMOGLOBIN CONCENTRATION / MEAN CORPUSCULAR VOLUME / MONOCYTE / NEUTROPHIL / NUCLEATED RED BLOOD CELLS / PLATELET COUNT: tissue Blood; for ALANINE AMINOTRANSFERASE / ALBUMIN / ALKALINE PHOSPHATASE / ASPARTATE AMINOTRANSFERASE / BLOOD UREA NITROGEN / CARBON DIOXIDE / CHLORIDE / CHOLESTEROL / CREATINE PHOSPHOKINASE / CREATININE / GLUCOSE / LACTATE DEHYDROGENASE / LIPASE / PHOSPHORUS / POTASSIUM / SODIUM / TOTAL BILIRUBIN / TOTAL PROTEIN / URIC ACID: tissue Plasma
[1] = 0 mg/kg, 72 h, dose level Control, time 3 day
[2] = 0 mg/kg, 120 h, dose level Control, time 5 day
[3] = 58 mg/kg, 72 h, dose level Low, time 3 day

Cc1cn([C@H]2C=C[C@@H](CO)O2)c(=O)[nH]c1=O [STAVUDINE]
ABSOLUTE BASOPHIL [1]: 0 CELLS/uL
ABSOLUTE EOSINOPHIL [1]: 0 CELLS/uL
ABSOLUTE LYMPHOCYTE [1]: 8482.5 CELLS/uL
ABSOLUTE MONOCYTE [1]: 63.83 CELLS/uL
ABSOLUTE SEGMENTED NEUTROPHIL [1]: 887 CELLS/uL
BASOPHIL [1]: 0%
EOSINOPHIL [1]: 0%
ERYTHROCYTE COUNT [1]: 5.49 x10E6/uL
HEMATOCRIT [1]: 34.5%
HEMOGLOBIN [1]: 13.33 G/DL
LEUKOCYTE COUNT [1]: 9.43 x10E3/uL
LYMPHOCYTE [1]: 90.17%
MEAN CORPUSCULAR HEMOGLOBIN [1]: 24.3 pg
MEAN CORPUSCULAR HEMOGLOBIN CONCENTRATION [1]: 38.63 G/DL
MEAN CORPUSCULAR VOLUME [1]: 62.88 fL
MONOCYTE [1]: 0.67%
NEUTROPHIL [1]: 9.17%
NUCLEATED RED BLOOD CELLS [1]: 0.67 /100WBC
PLATELET COUNT [1]: 1022.83 x10E3/uL
ALANINE AMINOTRANSFERASE [1]: 50.5 u/L
ALBUMIN [1]: 4.08 G/DL
ALKALINE PHOSPHATASE [1]: 368.33 u/L
ASPARTATE AMINOTRANSFERASE [1]: 87.5 u/L
BLOOD UREA NITROGEN [1]: 12.83 mg/dL
CARBON DIOXIDE [1]: 32.83 mmol/L
CHLORIDE [1]: 99.67 MEQ/L
CHOLESTEROL [1]: 79.67 mg/dL
CREATINE PHOSPHOKINASE [1]: 585 u/L
CREATININE [1]: 0.22 mg/dL
GLUCOSE [1]: 135.67 mg/dL
LACTATE DEHYDROGENASE [1]: 171 u/L
LIPASE [1]: 9.5 u/L
PHOSPHORUS [1]: 11.18 mg/dL
POTASSIUM [1]: 6.25 MEQ/L
SODIUM [1]: 144.87 MEQ/L
TOTAL BILIRUBIN [1]: 0.2 mg/dL
TOTAL PROTEIN [1]: 6.08 G/DL
URIC ACID [1]: 0.65 mg/dL
ABSOLUTE BASOPHIL [2]: 0 CELLS/uL
ABSOLUTE EOSINOPHIL [2]: 14.5 CELLS/uL
ABSOLUTE LYMPHOCYTE [2]: 7596.17 CELLS/uL
ABSOLUTE MONOCYTE [2]: 69.67 CELLS/uL
ABSOLUTE SEGMENTED NEUTROPHIL [2]: 503 CELLS/uL
BASOPHIL [2]: 0%
EOSINOPHIL [2]: 0.17%
ERYTHROCYTE COUNT [2]: 5.49 x10E6/uL
HEMATOCRIT [2]: 34.72%
HEMOGLOBIN [2]: 13.47 G/DL
LEUKOCYTE COUNT [2]: 8.18 x10E3/uL
LYMPHOCYTE [2]: 92.17%
MEAN CORPUSCULAR HEMOGLOBIN [2]: 24.57 pg
MEAN CORPUSCULAR HEMOGLOBIN CONCENTRATION [2]: 38.82 G/DL
MEAN CORPUSCULAR VOLUME [2]: 63.3 fL
MONOCYTE [2]: 1%
NEUTROPHIL [2]: 6.67%
NUCLEATED RED BLOOD CELLS [2]: 0 /100WBC
PLATELET COUNT [2]: 1141 x10E3/uL
ALANINE AMINOTRANSFERASE [2]: 48.33 u/L
ALBUMIN [2]: 4.07 G/DL
ALKALINE PHOSPHATASE [2]: 395.67 u/L
ASPARTATE AMINOTRANSFERASE [2]: 85.67 u/L
BLOOD UREA NITROGEN [2]: 15.83 mg/dL
CARBON DIOXIDE [2]: 31.33 mmol/L
CHLORIDE [2]: 100.83 MEQ/L
CHOLESTEROL [2]: 62.33 mg/dL
CREATINE PHOSPHOKINASE [2]: 248.33 u/L
CREATININE [2]: 0.2 mg/dL
GLUCOSE [2]: 135.67 mg/dL
LACTATE DEHYDROGENASE [2]: 141.33 u/L
LIPASE [2]: 9.5 u/L
PHOSPHORUS [2]: 10.73 mg/dL
POTASSIUM [2]: 6.07 MEQ/L
SODIUM [2]: 145.35 MEQ/L
TOTAL BILIRUBIN [2]: 0.22 mg/dL
TOTAL PROTEIN [2]: 6.12 G/DL
URIC ACID [2]: 0.63 mg/dL
ABSOLUTE BASOPHIL [3]: 0 CELLS/uL
ABSOLUTE EOSINOPHIL [3]: 22.67 CELLS/uL
ABSOLUTE LYMPHOCYTE [3]: 7881 CELLS/uL
ABSOLUTE MONOCYTE [3]: 172.33 CELLS/uL
ABSOLUTE SEGMENTED NEUTROPHIL [3]: 1024 CELLS/uL
BASOPHIL [3]: 0%
EOSINOPHIL [3]: 0.33%
ERYTHROCYTE COUNT [3]: 5.09 x10E6/uL
HEMATOCRIT [3]: 32.43%
HEMOGLOBIN [3]: 12.77 G/DL
LEUKOCYTE COUNT [3]: 9.1 x10E3/uL
LYMPHOCYTE [3]: 86.67%
MEAN CORPUSCULAR HEMOGLOBIN [3]: 25.1 pg
MEAN CORPUSCULAR HEMOGLOBIN CONCENTRATION [3]: 39.37 G/DL
MEAN CORPUSCULAR VOLUME [3]: 63.77 fL
MONOCYTE [3]: 2%
NEUTROPHIL [3]: 11%
NUCLEATED RED BLOOD CELLS [3]: 1 /100WBC
PLATELET COUNT [3]: 1073 x10E3/uL
ALANINE AMINOTRANSFERASE [3]: 58.67 u/L
ALBUMIN [3]: 4.17 G/DL
ALKALINE PHOSPHATASE [3]: 410.33 u/L
ASPARTATE AMINOTRANSFERASE [3]: 82.67 u/L
BLOOD UREA NITROGEN [3]: 12 mg/dL
CARBON DIOXIDE [3]: 33 mmol/L
CHLORIDE [3]: 99 MEQ/L
CHOLESTEROL [3]: 75 mg/dL
CREATINE PHOSPHOKINASE [3]: 267 u/L
CREATININE [3]: 0.33 mg/dL
GLUCOSE [3]: 133.33 mg/dL
LACTATE DEHYDROGENASE [3]: 130.33 u/L
LIPASE [3]: 10 u/L
PHOSPHORUS [3]: 11.33 mg/dL
POTASSIUM [3]: 6.27 MEQ/L
SODIUM [3]: 145.07 MEQ/L
TOTAL BILIRUBIN [3]: 0.23 mg/dL
TOTAL PROTEIN [3]: 6 G/DL
URIC ACID [3]: 0.77 mg/dL
